Non-standard residues stand in square brackets, D forms with d. Residues, ends and D or L forms follow the SMILES beside them. No end group written: not given here. *: point of attachment. pGlu = O=C1CC[C@@H](C(=O)O)N1; Bz = O=C(c1ccccc1)*
What was measured:
[1] = test system: human urinary ACE; test: ACE activity assay (Benzoyl-GlyHisLeu substrate); type: biochemical; conditions: 0.05 M Hepes pH 8.0, 37° C.
Description: The role of ACE in the pathogenesis of hypertension has prompted a search for inhibitors of the enzyme that could act as antihypertensive drugs. See for example U.S. Pat. Nos. 3,891,616, 3,947,575, 4,052,511 and 4,053,651. […] 6, 1977, and in scientific articles by Cushman, D. W. et al., Biochemistry 16, 5484 (1977), and by Ondetti, M. et al., Science 196, 441 (1977). […] These factors include the source of enzyme, its purity, the substrate used and its concentration, and the composition of the assay buffer. All I50 data reported herein have been performed with the same assay system and same enzyme (human urinary ACE) and with an approximately 1/2 Km level of substrate and are therefore internally consistent. Discrepancies with data obtained by other workers may be observed. Indeed such discrepancies do exist in the literature, for unknown reasons. See, for example, the I50 values for BPP9a reported by Cushman, D. W., et al., Experientia 29, 1032 (1973) and by Dorer, F. E., et al., Biochim. Biophys. Acta 429, 220 (1976).
ACE activity assay. For most experiments described herein, the enzyme was assayed in 0.05 M Hepes buffer, pH 8.0 containing 0.1 M NaCl and 0.75 M Na2 SO4. […] Enzyme was diluted in the above buffer such that 40 μl buffered enzyme was capable of hydrolyzing 13% of substrate in a 15-minute incubation at 37° C. […]

[2] = test system: ACE; conditions: cited from earlier work
[3] = test system: angiotensin I; test: Oral effectiveness: blood pressure response to angiotensin I in anesthetized rats; type: in vivo, rat; conditions: oral 20 μmol/kg
Procedure: (§1) Rats (210-290 g body weight) were fasted overnight and then anesthetized with intraperitoneal pentobarbital, 50-60 mg/kg. Tracheostomy was performed and the animals were ventilated mechanically. A cannula was inserted into a femoral vein for injection of angiotensin I, and a second cannula was inserted into a common carotid artery for direct measurement of arterial blood pressure. Heparin, 1,000 units, was injected via the femoral vein to prevent coagulation. Blood pressure was measured with a pressure transducer connected to a polygraph. The rats were injected with […] of angiotensin I in 20 μl of 0.9 g % NaCl; an amount of angiotensin I sufficient to raise mean arterial blood pressure by 38 mm Hg. After the responsiveness of a given rat to angiotensin I was established, the named compound at 20 μmol/kg (drug dissolved in 0.15 ml of H2 O plus 10 μl of 1 N NaHCO3), was given via a stomach tube. At timed intervals, the effects of 400 ng/kg of angiotensin I on mean arterial blood pressure were tested.

[4] = test system: angiotensin I; test: Intravenous effectiveness: blood pressure response to angiotensin I in anesthetized rats; type: in vivo, rat; conditions: intravenous 2 μmol/kg
Procedure: as §1, with “tested. Results are shown below:” for “tested.”
Anesthetized rats were prepared as described in Example 18. After the control reponse to 400 ng/kg angiotensin I was measured for a given rat, the named compound was administered via a femoral vein. The dose was 2 μmol/kg of the named compound in 15 μl 0.01 N sodium bicarbonate. The results are shown as percent of the control response.

## CC(C)C[C@H](NC(=O)[C@H](Cc1cnc[nH]1)NC(=O)CNC(=O)c1ccccc1)C(=O)O [Benzoyl-GlyHisLeu] (Bz-Gly-His-Leu-OH)
[1]
  Km: ~200 µM

## C[C@H](NC(=O)[C@H](Cc1c[nH]c2ccccc12)NC(=O)[C@H](CCCCN)NC(=O)[C@@H]1CCC(=O)N1)C(=O)N1CCC[C@H]1C(=O)O [BPP5a, <GluLysTrpAlaPro] ([pGlu]KWAP-OH)
[2]
  Km relative to angiotensin I (competitive substrate): lower Km than angiotensin I

## C[C@H](CSC(=O)[C@H](Cc1ccccc1)NC(=O)[C@@H]1CCC(=O)N1)C(=O)N1CCC[C@H]1C(=O)O [Example 15, N^α - [3-(Pyro-L-glutamyl-L-phenylalanylthio)-2-D-methylpropanoyl]-L-proline]
[3]; 5 min
  Blood pressure response to 400 ng/kg of Angiotensin I: 66 % of Control
[3]; 15 min
  Blood pressure response to 400 ng/kg of Angiotensin I: 26 % of Control
[3]; 18 min
  Blood pressure response to 400 ng/kg of Angiotensin I: 26 % of Control
[3]; 21 min
  Blood pressure response to 400 ng/kg of Angiotensin I: 21 % of Control
[3]; 25 min
  Blood pressure response to 400 ng/kg of Angiotensin I: 21 % of Control
[3]; 29 min
  Blood pressure response to 400 ng/kg of Angiotensin I: 24 % of Control
[3]; 39 min
  Blood pressure response to 400 ng/kg of Angiotensin I: 18 % of Control
[3]; 44 min
  Blood pressure response to 400 ng/kg of Angiotensin I: 16 % of Control
[3]; 49 min
  Blood pressure response to 400 ng/kg of Angiotensin I: 16 % of Control
[3]; 54 min
  Blood pressure response to 400 ng/kg of Angiotensin I: 18 % of Control
[3]; 60 min
  Blood pressure response to 400 ng/kg of Angiotensin I: 18 % of Control
[3]; 74 min
  Blood pressure response to 400 ng/kg of Angiotensin I: 18 % of Control
[3]; 86 min
  Blood pressure response to 400 ng/kg of Angiotensin I: 21 % of Control
[3]; 110 min
  Blood pressure response to 400 ng/kg of Angiotensin I: 21 % of Control
[3]; 120 min
  Blood pressure response to 400 ng/kg of Angiotensin I: 26 % of Control
[3]; 132 min
  Blood pressure response to 400 ng/kg of Angiotensin I: 26 % of Control
[3]; 142 min
  Blood pressure response to 400 ng/kg of Angiotensin I: 26 % of Control
[3]; +1 min
  Blood pressure response to 400 ng/kg of Angiotensin I: 53 % of Control
[4]; 5 min
  Blood pressure response to 400 ng/kg angiotensin I: 18 % of control
[4]; 11 min
  Blood pressure response to 400 ng/kg angiotensin I: 21 % of control
[4]; 14 min
  Blood pressure response to 400 ng/kg angiotensin I: 24 % of control
[4]; 17 min
  Blood pressure response to 400 ng/kg angiotensin I: 29 % of control
[4]; 20 min
  Blood pressure response to 400 ng/kg angiotensin I: 34 % of control
[4]; 24 min
  Blood pressure response to 400 ng/kg angiotensin I: 42 % of control
[4]; 32 min
  Blood pressure response to 400 ng/kg angiotensin I: 47 % of control
[4]; 43 min
  Blood pressure response to 400 ng/kg angiotensin I: 53 % of control
[4]; 49 min
  Blood pressure response to 400 ng/kg angiotensin I: 58 % of control
[4]; 56 min
  Blood pressure response to 400 ng/kg angiotensin I: 61 % of control
[4]; 71 min
  Blood pressure response to 400 ng/kg angiotensin I: 71 % of control
[4]; 76 min
  Blood pressure response to 400 ng/kg angiotensin I: 68 % of control
[4]; 88 min
  Blood pressure response to 400 ng/kg angiotensin I: 76 % of control
[4]; 99 min
  Blood pressure response to 400 ng/kg angiotensin I: 76 % of control
[4]; 109 min
  Blood pressure response to 400 ng/kg angiotensin I: 74 % of control
[4]; 125 min
  Blood pressure response to 400 ng/kg angiotensin I: 84 % of control
[4]; +1/2 min (30 sec.)
  Blood pressure response to 400 ng/kg angiotensin I: 8 % of control

## RPPGFSPFR [bradykinin]
[2]
  Km relative to angiotensin I (competitive substrate): lower Km than angiotensin I
